≈ marks a conversion by molar mass, not a printed value.
Experiments:
S. aureus ATCC 29213 = experiment: Antibacterial activity, broth microdilution (S. aureus); details: Staphylococcus aureus, ATCC29213, read-out: S. aureus ATCC 29213 (Gram +ve) MIC
Description: (§1) All twenty-eight molecules were evaluated for in vitro antimicrobial activities that were assessed against Gram +ve and Gram -ve strains.
(§2) The antibacterial inhibitory effects of all compounds were assessed using the broth microdilution method, with ciprofloxacin serving as the reference medication.

MtDHFR = MtDHFR (Mycobacterium tuberculosis, UniProt P9WNX1); experiment: biochemical; assay type: biochemical
M. tuberculosis H37Rv = experiment: Antitubercular activity, Microplate Alamar Blue test (MABA); assay type: cell-based, Mycobacterium tuberculosis; details: Mycobacterium tuberculosis, H37RV, n = 3
E. coli ATCC 25922 = experiment: Antibacterial activity, broth microdilution (E. coli); details: for MIC: Escherichia coli, ATCC25922, read-out: E. coli ATCC 25922 (Gram –ve) MIC, broth microdilution
Description: as §1, §2

[1] = biological target: InhA enzyme from M. tuberculosis (Mycobacterium tuberculosis, UniProt P9WGR1); experiment: InhA inhibition assay; assay type: biochemical; details: for inhibition at 50 µM: read-out: % InhA Inhibition at 50 µM
[2] = tested on: human lung cancer cell line A549; experiment: MTT-based cytotoxicity; assay type: cell-based; details: Homo sapiens, A549; MTT assay
Description: The cytotoxic effects of seventeen selected molecules were assessed against the A549 human lung adenocarcinoma cell line using the MTT assay. Cisplatin served as the reference drug for comparison. Lower IC50 values indicate higher cytotoxicity.
The cytotoxic activity (IC50) of selected compounds against A549 (lung adenocarcinoma) MV cell-lines was evaluated by performing cellular conversion of MTT [3-(4,5-dimethylthiazo-2-yl)-2,5-diphenyl-tetrazolium bromide] into a formazan product. This evaluation was conducted up to a concentration of 50 mg/mL using the Promega Cell Titre 96 non-radioactive cell proliferation assay, with cisplatin serving as the positive control. Cytotoxicity is commonly quantified by determining the IC50 value, which represents the quantity of a substance that reduces the optical density of treated cells by 50% compared to untreated cells, as measured by the MTT experiment. The results are presented as IC50 values (mean ± standard error of the mean (SEM) obtained from three separate and independent measurements.

Sequence of MtDHFR (P9WNX1 whole entry): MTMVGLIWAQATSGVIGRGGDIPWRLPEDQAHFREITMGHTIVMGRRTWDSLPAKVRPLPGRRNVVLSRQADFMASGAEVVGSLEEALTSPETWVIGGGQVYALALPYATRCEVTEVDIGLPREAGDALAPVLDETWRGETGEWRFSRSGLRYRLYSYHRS
Sequence of InhA enzyme from M. tuberculosis (P9WGR1 whole entry, looked up): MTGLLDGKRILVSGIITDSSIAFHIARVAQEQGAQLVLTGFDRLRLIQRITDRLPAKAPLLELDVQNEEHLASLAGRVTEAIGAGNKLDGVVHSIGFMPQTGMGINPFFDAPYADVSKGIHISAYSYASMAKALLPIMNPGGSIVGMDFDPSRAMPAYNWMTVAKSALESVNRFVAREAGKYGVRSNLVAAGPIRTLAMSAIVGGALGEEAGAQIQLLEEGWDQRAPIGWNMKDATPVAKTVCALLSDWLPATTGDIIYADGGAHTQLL

Row | Structure (SMILES) | MIC (S. aureus ATCC 29213) [µg/mL] | IC50 (MtDHFR) [µM] | MIC (M. tuberculosis H37Rv) [µg/mL] | MIC (E. coli ATCC 25922) [µg/mL] | E. coli ATCC 25922 (Gram –ve) MIC (E. coli ATCC 25922; broth microdilution) [µg/mL] | inhibition at 50 µM [1] [%] | IC50 [2] [µg/mL] | MtDHFR inhibition, in words, compared with trimethoprim (MtDHFR) | % InhA Inhibition at 50 µM [1]
1 | CC(=NNC(=O)COC(=O)c1ccc(-n2cccc2)cc1)c1ccc(Br)cc1Br [Compound 5m, 2-(2-(1-(2,4-dibromophenyl)ethylidene)hydrazinyl)-2-oxoethyl 4-(1H-pyrrol-1-yl)benzoate] | 6.25 (≈ 12 µM) | 90 | 3.12 (≈ 6.01 µM) | 0.4 to 0.8 (≈ 0.77 to 1.54 µM) | 0.8 |  |  |  | 
2 | CC(=NNC(=O)COC(=O)c1ccc(-n2cccc2)cc1)c1cccc(Br)c1 [Compound 5f, 2-(2-(1-(3-bromophenyl)ethylidene)hydrazinyl)-2-oxoethyl 4-(1H-pyrrol-1-yl)benzoate] | 3.12 (≈ 7.09 µM) | 153 | 1.6 (≈ 3.63 µM) | 1.6 (≈ 3.63 µM) |  | 43 | 275 ± 0.4 (≈ 625 µM) |  | 
3 | CC(=NNC(=O)COC(=O)c1ccc(-n2cccc2)cc1)c1ccc(O)cc1 [Compound 5j, 2-(2-(1-(4-hydroxyphenyl)ethylidene)hydrazinyl)-2-oxoethyl 4-(1H-pyrrol-1-yl)benzoate] | 12.5 (≈ 33.1 µM) | 70 | 1.6 (≈ 4.24 µM) | 3.12 (≈ 8.27 µM) |  | 32 | 255 ± 0.3 (≈ 676 µM) | moderate inhibition | 
4 | O=C(OCC(=O)n1[nH]c(=O)c2ccccc2c1=O)c1ccc(-n2cccc2)cc1 [Compound 4a, 2-(1,4-dioxo-3,4-dihydrophthalazin-2(1H)-yl)-2-oxoethyl 4-(1H-pyrrol-1-yl)benzoate] | 12.5 (≈ 32.1 µM) | 23 | 1.6 (≈ 4.11 µM) | 3.12 (≈ 8.01 µM) |  | 43 | 315 ± 0.3 (≈ 809 µM) | greater inhibition characteristics than trimethoprim | 
5 | Cc1cc(=O)n(C(=O)COC(=O)c2ccc(-n3cccc3)cc2)[nH]c1=O [Compound 4f, 2-(4-methyl-3,6-dioxo-2,3-dihydropyridazin-1(6H)-yl)-2-oxoethyl 4-(1H-pyrrol-1-yl)benzoate] | 3.12 (≈ 8.83 µM) | 35 | 1.6 (≈ 4.53 µM) | 0.8 (≈ 2.26 µM) |  | 23 | 258 ± 0.1 (≈ 730 µM) | greater inhibition characteristics than trimethoprim | 
6 | CC(=NNC(=O)COC(=O)c1ccc(-n2cccc2)cc1)c1ccc(C)cc1 [Compound 5e, 2-oxo-2-(2-(1-(p-tolyl)ethylidene)hydrazinyl)ethyl 4-(1H-pyrrol-1-yl)benzoate] | 12.5 (≈ 33.3 µM) | 118 | 1.6 (≈ 4.26 µM) | 3.12 (≈ 8.31 µM) |  |  |  |  | 
7 | O=C(COC(=O)c1ccc(-n2cccc2)cc1)NN=Cc1ccccc1Br [Compound 6b, 2-(2-(2-bromobenzylidene)hydrazinyl)-2-oxoethyl 4-(1H-pyrrol-1-yl)benzoate] | 3.12 (≈ 7.32 µM) | 130 | 1.6 (≈ 3.75 µM) | 1.6 (≈ 3.75 µM) |  |  |  |  | no inhibition
8 | C=C1CC(=O)N(C(=O)COC(=O)c2ccc(-n3cccc3)cc2)NC1=O [Compound 4g, 2-(4-methylene-3,6-dioxotetrahydropyridazin-1(2H)-yl)-2-oxoethyl 4-(1H-pyrrol-1-yl)benzoate] | 3.12 (≈ 8.83 µM) | 56 | 1.6 (≈ 4.53 µM) | 0.8 (≈ 2.26 µM) |  |  |  | moderate inhibition | 
9 | COc1ccc(C=NNC(=O)COC(=O)c2ccc(-n3cccc3)cc2)cc1 [Compound 6e, 2-(2-(4-methoxybenzylidene)hydrazinyl)-2-oxoethyl 4-(1H-pyrrol-1-yl)benzoate] | 6.25 (≈ 16.6 µM) | 69 | 1.6 (≈ 4.24 µM) | 1.6 (≈ 4.24 µM) |  |  |  | moderate inhibition | no inhibition
10 | O=C1CCC(=O)N(C(=O)COC(=O)c2ccc(-n3cccc3)cc2)N1 [Compound 4d, 2-(3,6-dioxotetrahydropyridazin-1(2H)-yl)-2-oxoethyl 4-(1H-pyrrol-1-yl)benzoate] | 6.25 (≈ 18.3 µM) | 31 | 1.6 (≈ 4.69 µM) | 1.6 (≈ 4.69 µM) |  |  |  | greater inhibition characteristics than trimethoprim | 
11 | C/C(=N\NC(=O)COC(=O)c1ccc(-n2cccc2)cc1)c1ccc([N+](=O)[O-])cc1 [Compound 5d, 2-(2-(1-(4-nitrophenyl)ethylidene) hydrazineyl) -2-oxoethyl-4-(1H-pyrrol-1-yl) benzoate] | 6.25 (≈ 15.4 µM) | 121 | 1.6 (≈ 3.94 µM) | 1.6 (≈ 3.94 µM) |  |  |  |  | 
12 | CC(=NNC(=O)COC(=O)c1ccc(-n2cccc2)cc1)c1cccc(O)c1 [Compound 5p, 2-(2-(1-(3-hydroxyphenyl)ethylidene)hydrazinyl)-2-oxoethyl 4-(1H-pyrrol-1-yl)benzoate] | 12.5 (≈ 33.1 µM) | 115 | 3.12 (≈ 8.27 µM) | 3.12 (≈ 8.27 µM) |  |  |  |  | 
13 | NC(=O)c1cnccn1 [Pyrazinamide, reference compound] |  |  | 3.12 (≈ 25.3 µM) |  |  |  |  |  | 
